The source of these data is ChEMBL document CHEMBL5385857, “Optimization and SAR research at the benzoxazole and tetrazole rings of JNJ4796 as new anti-influenza A virus agents, part 2” (Eur J Med Chem, 2023).

Series [1] concerns Influenza A virus. Kind of series: Antiviral activity against oseltamivir-resistant influenza A virus H1N1 clinical isolate IAV/Tianjin Jinnan/15/2009 infected in MDCK cells. The format is functional, organism-based. The following applies: H1N1(IAV/Tianjin Jinnan/15/2009).
Series [2] is described as follows: Selectivity index, ratio of CC50 for MDCK cells to IC50 for oseltamivir-resistant influenza A virus H1N1 clinical isolate IAV/Tianjin Jinnan/15/2009 infected in MDCK cells. Type of series: toxicity, cell-based. Particulars: dog, read-out: Ratio CC50/IC50.

The structures appear in SMILES notation.

One may read the IC50 as the concentration that gives 50% inhibition. Low values mean higher potency, high ones lower potency. In the case of `CC(=O)Nc1ccc2oc(-c3ccnc(C(=O)N4CCN([C@@H](c5ccc(F)cc5)c5nnn(C(C)C)n5)CC4)c3)nc2c1`, the midpoint of inhibition in series [1], the IC50, lay at 2290 nM. In series [2], the selectivity ratio is above 43.

As for `C=Cn1nnc([C@@H](c2ccc(F)cc2)N2CCN(C(=O)c3cc(-c4nc5cc(NC(C)=O)ccc5o4)ccn3)CC2)n1`, it took 90 nM to reach half-maximal inhibition in series [1] (IC50). Moreover, in series [2], the selectivity ratio was above 196.

`CC(=O)Nc1ccc2oc(-c3ccnc(C(=O)N4CCN([C@@H](c5ccccc5)c5nnn(C(C)C)n5)CC4)c3)nc2c1`: it took 1510 nM to reach half-maximal inhibition in series [1] (IC50). The selectivity ratio in series [2] was above 66.

For the molecule `C=Cn1nnc([C@H](c2ccc(F)cc2)N2CCN(C(=O)c3cc(-c4nc5cc(NC(C)=O)ccc5o4)ccn3)CC2)n1`, the IC50 in series [1] came to 6860 nM. In addition, the selectivity ratio in series [2] was above 14.5.

`CC(=O)Nc1ccc2oc(-c3ccnc(C(=O)N4CCN([C@H](c5ccc(F)cc5)c5nnn(C6CCCC6)n5)CC4)c3)nc2c1` registered a concentration for half-maximal inhibition (IC50) in series [1] of 440 nM. Moreover, in series [2], the selectivity ratio came out at 198.

The molecule `CC(=O)Nc1ccc2oc(-c3ccnc(C(=O)N4CCN([C@H](c5ccc(F)cc5)c5nnn(CCC(C)C)n5)CC4)c3)nc2c1` came in with a 50% inhibitory concentration (IC50) in series [1] of 730 nM. Also, the selectivity ratio in series [2] was above 136.

In turn, `CCC(CC)n1nnc([C@H](c2ccc(F)cc2)N2CCN(C(=O)c3cc(-c4nc5cc(NC(C)=O)ccc5o4)ccn3)CC2)n1` showed an IC50 in series [1] of 960 nM. Besides, in series [2], the selectivity ratio is above 104.

In the case of `CCCCn1nnc([C@H](c2ccc(F)cc2)N2CCN(C(=O)c3cc(-c4nc5cc(NC(C)=O)ccc5o4)ccn3)CC2)n1`, in series [1], 4850 nM corresponded to half-maximal inhibition (IC50). In addition, the selectivity ratio in series [2] is above 20.

For `CC(=O)Nc1ccc2oc(-c3ccnc(C(=O)N4CCN([C@H](c5ccccc5)c5nnn(C(C)C)n5)CC4)c3)nc2c1`, the IC50 in series [1] is 70 nM. Besides, the selectivity ratio in series [2] is above 1430.

As to `CC(=O)Nc1ccc2oc(-c3ccnc(C(=O)N4CCN([C@@H](c5ccc(F)cc5)c5nnn(C6CCCC6)n5)CC4)c3)nc2c1`, in series [1], the 50% inhibitory concentration (IC50) turned out to be 2460 nM. The selectivity ratio in series [2] amounted to 39.

Regarding `CCC(CC)n1nnc([C@@H](c2ccc(F)cc2)N2CCN(C(=O)c3cc(-c4nc5cc(NC(C)=O)ccc5o4)ccn3)CC2)n1`, in series [1], 220 nM corresponded to half-maximal inhibition (IC50). For the same molecule, the selectivity ratio in series [2] was above 454.

As for `CCCCn1nnc([C@@H](c2ccc(F)cc2)N2CCN(C(=O)c3cc(-c4nc5cc(NC(C)=O)ccc5o4)ccn3)CC2)n1`, 220 nM corresponded to half-maximal inhibition in series [1] (IC50). The selectivity ratio in series [2] is above 454.

In series [1], `CC(=O)Nc1ccc2oc(-c3ccnc(C(=O)N4CCN([C@@H](c5ccc(F)cc5)c5nnn(CCC(C)C)n5)CC4)c3)nc2c1` returned a half-inhibitory concentration (IC50) of 11700 nM. Also, the selectivity ratio in series [2] was above 8.

In series [1], `CC(=O)Nc1ccc2oc(-c3ccnc(C(=O)N4CCN([C@H](c5ccc(F)cc5)c5nnn(C(C)C)n5)CC4)c3)nc2c1` returned a half-maximal inhibitory concentration (IC50) of 70 nM. Besides, in series [2], the selectivity ratio was above 1430.
